Experimental data from patent publication US10617692B2, “Pyrrolopyrimidine comprising cyclopentyl substituent” (CENTAURUS BIOPHARMA CO., LTD., priority 2016, dated 2020).

What was measured:
JAK2 kinase = JAK2 kinase (Homo sapiens (Human), UniProt O60674); test: Assay for enzymatic activity (IC50), HTRF kinase assay; type: biochemical; conditions: ATP at Km, 120 min at 23° C.
Description: A testing platform for kinase activity of JAK2 was established based on Homogeneous Time-Resolved Fluorescence (HTRF) assay, and the activities of the compounds were tested using the platform. The compounds were subjected to three-fold gradient dilutions with 100% DMSO with a starting concentration of 1 mM (11 dilutions in total). 4 μL of each dilution was added to 96 μL of reaction buffer (50 mM HEPES, pH 7.4, 10 mM MgCl2, 1 mM EGTA, 0.01% Tween-20, 0.005% BAS, 2 mM DTT) and mixed homogeneously. […] The mixture was mixed homogeneously by centrifugation. […] The plate was incubated in the incubator for 1 hr, and then the fluorescence values were read on Envision (available from PerkinElmer). The excitation wavelength was 320 nm, and the emission wavelengths for detection were 665 nm and 620 nm. The enzymatic activity was represented by a ratio of the two readout at the two emission wavelengths. The enzymatic activity for each compound was tested at 11 concentrations, and IC50 values of the compounds were obtained by calculating the data using GraFit6.0 software (Erithacus Software)

[1] = Human liver microsomal stability test, determination of inherent clearance; type: in vitro ADME; conditions: 37° C.; for half-life at 1 μM: both sexes, 1 μM compound, human liver microsomes 0.4 mg/mL protein, 1.25 mM NADPH, 1 hour, read-out: Human liver microsome T1/2 (converted); for Human inherent CL: calculated from declination slope of compound concentration in human liver microsomes, 1 μM
Description: 1 μM of the tested compound was incubated for 1 hour together with human liver microsomes of mixed genders (0.4 mg/mL protein) in the presence of 1.25 mM NADPH at 37° C. to determine the inherent clearance. The disappearance of the tested compound was monitored by LC-MS/MS at 0, 10, 20, 30, 45, and 60 minute. By using the standard method reported in literatures, the declination slope of the concentration of the compound was used to calculate the inherent clearance of human.

[2] = Plasma protein binding assay (Rapid Equilibrium Dialysis), determination of free moiety; type: in vitro ADME; conditions: equilibrium dialysis 5 hours in human plasma at 37° C.; compounds II, III, IV at 10 μM, compound I at 1 μM and 10 μM
Description: Protein binding to the tested compounds was determined by equilibrium dialysis using a Rapid Equilibrium Dialysis (RED) Device system. The dialysis was performed for 5 hours in human plasma at 37° C. The compound II, the compound III, and the compound IV were incubated at 10 μM, and the compound I was incubated at 1 μM and 10 μM. The concentrations of the compounds in plasma and a buffer solution after dialysis were determined through LC-MS/MS analysis. The free moiety is defined as a ratio of the concentration in the buffer solution to the concentration in the plasma.

Chain of JAK2 kinase (O60674 whole entry): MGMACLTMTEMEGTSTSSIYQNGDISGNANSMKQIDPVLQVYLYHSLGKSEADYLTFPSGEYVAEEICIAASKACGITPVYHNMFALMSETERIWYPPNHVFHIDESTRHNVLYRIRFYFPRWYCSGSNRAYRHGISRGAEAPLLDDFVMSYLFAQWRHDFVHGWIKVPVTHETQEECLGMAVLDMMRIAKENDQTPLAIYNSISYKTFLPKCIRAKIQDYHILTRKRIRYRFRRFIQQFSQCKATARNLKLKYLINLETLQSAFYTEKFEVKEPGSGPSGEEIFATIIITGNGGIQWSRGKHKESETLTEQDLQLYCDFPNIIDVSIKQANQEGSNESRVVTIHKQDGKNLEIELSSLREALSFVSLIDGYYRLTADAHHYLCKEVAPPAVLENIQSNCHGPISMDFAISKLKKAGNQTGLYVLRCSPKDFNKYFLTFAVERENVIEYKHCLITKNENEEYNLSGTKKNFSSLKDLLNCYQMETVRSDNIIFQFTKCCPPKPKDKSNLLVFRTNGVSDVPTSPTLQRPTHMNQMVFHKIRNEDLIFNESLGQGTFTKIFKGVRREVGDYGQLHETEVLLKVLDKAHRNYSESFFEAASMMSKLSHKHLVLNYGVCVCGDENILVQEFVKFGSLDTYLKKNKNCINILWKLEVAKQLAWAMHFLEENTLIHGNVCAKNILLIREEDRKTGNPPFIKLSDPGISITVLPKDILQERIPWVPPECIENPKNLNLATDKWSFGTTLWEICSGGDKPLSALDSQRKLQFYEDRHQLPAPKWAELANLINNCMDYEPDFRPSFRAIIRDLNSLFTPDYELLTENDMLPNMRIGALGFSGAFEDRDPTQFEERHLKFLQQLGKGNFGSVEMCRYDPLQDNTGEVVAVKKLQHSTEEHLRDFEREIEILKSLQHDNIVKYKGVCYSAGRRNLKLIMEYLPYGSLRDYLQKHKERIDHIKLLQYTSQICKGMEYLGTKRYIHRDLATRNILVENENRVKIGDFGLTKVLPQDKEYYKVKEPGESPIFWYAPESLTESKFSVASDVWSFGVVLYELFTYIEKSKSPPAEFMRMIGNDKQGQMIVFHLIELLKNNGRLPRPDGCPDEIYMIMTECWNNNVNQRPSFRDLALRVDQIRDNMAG

Row | IC50 (JAK2 kinase) | half-life at 1 μM [1] | Human inherent CL [1] | Unbound moiety (% human plasma) [2] | SMILES
1 | < 0.01 µM | > 4 h | <5.17 mL/min/kg | 28.8% | N#CCC(C1CCCC1O)n1cc(-c2ncnc3[nH]ccc23)c(N)n1 (stereo not shown) [Compound II, 3-[3-amino-4-(7H-pyrrolo[2,3-d]pyrimidin-4-yl)-1H-pyrazol-1-yl]-3-(2-hydroxylcyclopentyl)propionitrile]
2 | < 0.01 µM | > 4 h | <5.17 mL/min/kg | 30.4% | N#CCC(C1CCC(=O)C1)n1cc(-c2ncnc3[nH]ccc23)c(N)n1 (stereo not shown) [Compound III, 3-[3-amino-4-(7H-pyrrolo[2,3-d]pyrimidin-4-yl)-1H-pyrazol-1-yl]-3-(3-oxocyclopentyl)propionitrile]
3 | < 0.03 µM | > 4 h | <5.17 mL/min/kg | 24.3% | N#CCC(C1CCCC1=O)n1cc(-c2ncnc3[nH]ccc23)c(N)n1 (stereo not shown) [Compound IV, 3-[3-amino-4-(7H-pyrrolo[2,3-d]pyrimidin-4-yl)-1H-pyrazol-1-yl]-3-(2-oxocyclopentyl)propionitrile]
4 | – | 2.76 h | – | – | N#CC[C@H](C1CCCC1)n1cc(-c2ncnc3[nH]ccc23)c(N)n1 [Compound I^a, (3R)-3-[3-amino-4-(7H-pyrrolo[2,3-d]pyrimidin-4-yl)-1H-pyrazol-1-yl]-3-cyclopentylpropionitrile]
